In paper PMC4700278, “Molecular and Biochemical Analysis of the Estrogenic and Proliferative Properties of Vitamin E Compounds” (Frontiers in Oncology, 2016):

Columns and labels:
ERα = biological target: T1, ERα (Homo sapiens, UniProt P03372); assay: Estrogen receptor-binding assay, competition with [3H]-17β-estradiol; set-up: expressed in transfected cells; host or cells: Cos-7; conditions: extracts of cos-7 cells expressing human ERα; 2 nM [3H]-E2; tocols 1 μM to 1 mM; N.M. = not measurable
T1 sequence (P03372 1-595): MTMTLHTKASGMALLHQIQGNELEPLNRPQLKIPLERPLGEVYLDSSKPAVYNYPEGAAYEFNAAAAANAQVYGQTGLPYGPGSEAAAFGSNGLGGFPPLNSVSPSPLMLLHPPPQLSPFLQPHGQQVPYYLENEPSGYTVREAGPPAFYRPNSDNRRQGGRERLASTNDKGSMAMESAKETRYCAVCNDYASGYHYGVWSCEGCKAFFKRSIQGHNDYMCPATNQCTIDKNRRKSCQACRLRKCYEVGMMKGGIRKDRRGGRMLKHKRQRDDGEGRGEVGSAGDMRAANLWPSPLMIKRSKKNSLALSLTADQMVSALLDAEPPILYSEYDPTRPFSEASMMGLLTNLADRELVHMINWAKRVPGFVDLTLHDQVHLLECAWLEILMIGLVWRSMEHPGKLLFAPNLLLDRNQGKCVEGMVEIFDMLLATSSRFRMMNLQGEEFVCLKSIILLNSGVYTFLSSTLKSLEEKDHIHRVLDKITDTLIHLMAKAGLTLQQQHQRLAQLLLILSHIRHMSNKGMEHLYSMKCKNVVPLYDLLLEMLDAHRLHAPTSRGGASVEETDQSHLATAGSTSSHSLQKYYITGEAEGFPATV

ERβ = ERβ (Homo sapiens, UniProt Q92731); assay: as above; set-up: expressed in transfected cells; host or cells: Cos-7; conditions: extracts of cos-7 cells expressing human ERβ; 2 nM [3H]-E2; tocols 1 μM to 1 mM; N.M. = not measurable
Chain of ERβ (Q92731 whole entry): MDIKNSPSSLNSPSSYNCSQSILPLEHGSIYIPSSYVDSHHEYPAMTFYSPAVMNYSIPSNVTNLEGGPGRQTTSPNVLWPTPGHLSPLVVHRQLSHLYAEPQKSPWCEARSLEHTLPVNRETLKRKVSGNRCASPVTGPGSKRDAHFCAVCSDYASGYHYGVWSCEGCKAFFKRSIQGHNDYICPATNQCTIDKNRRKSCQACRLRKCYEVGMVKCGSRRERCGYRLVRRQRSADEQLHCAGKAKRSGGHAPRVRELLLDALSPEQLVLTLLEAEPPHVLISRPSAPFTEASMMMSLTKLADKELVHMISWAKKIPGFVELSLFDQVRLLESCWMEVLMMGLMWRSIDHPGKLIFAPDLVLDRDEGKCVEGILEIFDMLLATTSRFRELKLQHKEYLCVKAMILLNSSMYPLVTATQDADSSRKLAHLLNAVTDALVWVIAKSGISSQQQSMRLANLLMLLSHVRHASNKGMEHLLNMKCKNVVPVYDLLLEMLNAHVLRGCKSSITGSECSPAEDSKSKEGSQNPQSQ

[1] = tested on: ER-dependent transcription in MELN cells; assay: ERE-luciferase reporter assay in MELN cells (MCF-7 stably transfected with ERE-β-globin-tk-Luc); assay type: cell-based, human; conditions: for stimulation of luciferase expression (ER-dependent transcription): 500 μM (tocols 10 to 500 μM)
From the text: MELN cells were established by transfecting ER(+) MCF-7 cells with the ERE-β-globin-tk-Luc-SV-Neo plasmid ([36]). HELN cells were generated by transfection of ER(−) HeLa cells with this plasmid. The HELN-ERα, HELN-ERβ, HELN-ΔAB-ERα, and HELN-ΔAB-ERβ cell lines then underwent a second transfection with the corresponding pSG5-puro plasmids (pSG5-ERα-puro, pSG5-ERβ-puro, pSG5-ΔAB-ERα-puro, and pSG5-ΔAB-ERβ-puro, respectively) and expressed wild-type or mutated ERα or ERβ ([39], [40]). […] Comparison of the activities toward hERα and hERβ with the truncated ΔAB-ERα and ΔAB-ERβ provides a powerful model to identify partial ER agonists (requiring ligand-independent AF-1 to induce maximal ER activation). […] Cells were grown routinely in DMEM growth medium supplemented with 5% FBS (Gibco BRL, Life Technologies, Cergy pontoise, France). Cells were incubated at 37°C in a humidified 5% CO2 incubator. For experiments, cells were grown for 5 days in phenol red-free medium, containing 6% dextran-coated charcoal-treated FCS (DCC-FCS) with penicillin–streptomycin. Medium was changed after 2 days. On day 5, cells were treated or not with the compounds, which were dissolved in ethanol. For each condition, 15 × 10^3 cells were seeded per well in 12-well plates and treated, as described above, for 8 h in a final volume of 0.5 ml. At the end of the treatment, cells were washed with PBS and lysed in 150 μl lysis buffer (Promega, Charbonnières, France). Luciferase activity was measured using the luciferase assay reagent (Promega), according to the manufacturer’s instructions. Protein concentrations were measured using the Bradford technique ([41]) to normalize the luciferase activity data. For each condition, average luciferase activity was calculated from the data of three independent wells.
Figure 3 Measurement of estrogenicity of tocols in vitro. (A) Dose–response curve of the effect of tocols on MCF-7 cells stably transfected with the ERE-β-globin-tk-Luc plasmid (MELN cells). […] Data shown are the mean values ± SEM from three independent experiments. […] MCF-7 extracts were analyzed for the presence of ERα by western blotting using GAPDH as a control. […] The western blot shown is representative of three independent experiments. The ratio of ERα to GAPDH levels in each experiment was determined densitometrically and normalized to control value (taken to be 1). (D) Effect of δ-tocols on estrogen response element-dependent luciferase activity in HELN cells, which are HELA cells transfected with either fully functional ERα or ERβ or their mutated versions containing a deletion the AB domain (ΔAB). […] Data shown are the mean values ± SEM from three independent experiments. […] Cells were treated with 500 μM δ-tocols in the presence or in the absence of ICI. The relative expression of TGFα, PR, and Ps2 (TFF1) after 16 h was analyzed by quantitative RT-PCR. Data shown are the mean values ± SEM from three independent experiments.

T47D (ER(+)) cells = assay: Cell proliferation assay (sulforhodamine B); assay type: cell-based, human
Description: (§1) MCF-7 (ER(+)), T47D (ER(+)), and MDA-MB-231 (ER(−)) cell lines were from ATCC. Cell lines were maintained at 37°C in a humidified incubator in a 5% CO2-enriched atmosphere in T-75 flasks. […] Cells were grown for 24 h before treatment in phenol red-free medium containing 5% DCC-FCS. Cells were seeded into 96-well plates at 2000 cells/well. Treatment media (150 μl/well) was added on the following day and replaced at 48-h intervals until the end of the experiment. Cell density was measured via the sulforhodamine B method ([43]) after 0, 2, 4, 6, and 8 days. The absorbance of SRB was measured directly at 490 nm in the 96-well plates using a multiskan® multisoft reader from Labsystem.

MDA-MB-231 (ER(−)) cells = assay: Cell proliferation assay (sulforhodamine B); assay type: cell-based, human; conditions: 500 μM δ-TP or δ-TT; 30 μM lovastatin; 6-day period
Description: MCF-7 (ER(+)), T47D (ER(+)), and MDA-MB-231 (ER(−)) cell lines were from ATCC. Cell lines were maintained at 37°C in a humidified incubator in a 5% CO2-enriched atmosphere in T-75 flasks. MCF-7, T47D, and MDA-MB-231 cells were grown routinely in phenol red RPMI 1640 medium supplemented with 5% FBS (Gibco BRL, Life Technologies, Cergy Pontoise, France) and with penicillin–streptomycin. Cells were grown for 24 h before treatment in phenol red-free medium containing 5% DCC-FCS. Cells were seeded into 96-well plates at 2000 cells/well. Treatment media (150 μl/well) was added on the following day and replaced at 48-h intervals until the end of the experiment. Cell density was measured via the sulforhodamine B method ([43]) after 0, 2, 4, 6, and 8 days. The absorbance of SRB was measured directly at 490 nm in the 96-well plates using a multiskan® multisoft reader from Labsystem.
Figure 4 Effect of tocol on ER(+) and ER(−) BC cell proliferation and HMG-CoA reductase activity. (A) Effect of δ-tocols on estrogen and non-estrogen-regulated growth of MCF-7, T47D, and MDA-MB-231 cells. […] Cells were also treated with 30 μM lovastatin (Lova) in the presence or absence of 5 mM M, as described in Section “Materials and Methods.” Values are shown as means and vertical bars represent SEM. The data were analyzed by two-way ANOVA, followed by Bonferroni post hoc test. ***P < 0.001, **P < 0.01, and *P < 0.05 in comparison with control or bare-linked specific control. Ns: not significant. (B) Effect of δ-TT on hydroxymethylglutaryl coenzyme A reductase (HMGR) activity in MCF-7, T47D, and MDA-MB-231 cells. […] Data shown are the mean values ± SEM from three independent experiments performed in triplicate.

MCF-7 (ER(+)) cells = assay: Cell proliferation assay (sulforhodamine B); assay type: cell-based, human
Description: as §1

[2] = 500 μM δ-TP or δ-TT, 30 μM lovastatin, 6-day period

`CC(C)=CCC/C(C)=C/CC/C(C)=C/CC[C@]1(C)CCc2cc(O)c(C)c(C)c2O1` [γ-TT, γ-tocotrienol] showed an IC50 (ERα) of 203 ± 25 µM and an IC50 (ERβ) of 205 ± 18 µM.

`CC(C)(Sc1cc(C(C)(C)C)c(O)c(C(C)(C)C)c1)Sc1cc(C(C)(C)C)c(O)c(C(C)(C)C)c1` [Probucol, probucol, reference compound] was tested, and the “stimulation of luciferase expression (ER-dependent transcription)” value (“stimulation of luciferase expression” for short) [1] was “did not stimulate the expression of luciferase”.

Molecule `Cc1c(O)cc2c(c1C)O[C@](C)(CCC[C@H](C)CCC[C@H](C)CCCC(C)C)CC2` [γ-TP, γ-tocopherol] has an IC50 (ERα) of 227 ± 28 µM and an IC50 (ERβ) of 215 ± 16 µM.

In the case of `CC[C@H](C)C(=O)O[C@H]1C[C@@H](C)C=C2C=C[C@H](C)[C@H](CC[C@@H]3C[C@@H](O)CC(=O)O3)[C@H]21` [lovastatin, reference compound], the “effect on T47D cell proliferation” value (T47D (ER(+)) cells; [2]) is reported as “inhibition of cell proliferation”, the “effect on MDA-MB-231 cell proliferation” value (MDA-MB-231 (ER(−)) cells) is reported as “inhibition of cell proliferation” and the “effect on MCF-7 cell proliferation” value (MCF-7 (ER(+)) cells; [2]) is reported as “inhibition of cell proliferation”.

Molecule `Cc1c(C)c2c(c(C)c1O)CC[C@@](C)(CCC[C@H](C)CCC[C@H](C)CCCC(C)C)O2` [α-TP, α-tocopherol] has an IC50 (ERα) of 453 ± 30 µM and an IC50 (ERβ) of 431 ± 21 µM.

In the case of `Cc1cc(C(C)(C)C)c(O)c(C(C)(C)C)c1` [BHT, butylated hydroxytoluene, reference compound], the “stimulation of luciferase expression” value [1] is reported as “did not stimulate the expression of luciferase”.

With `CCCCN(C)C(=O)CCCCCCCCCCC1Cc2cc(O)ccc2C2CC[C@@]3(C)C(CC[C@@H]3O)C12` (stereo partly shown) [ICI 164,384, reference compound] the “blockade of δ-TP- and E2-induced stimulation of T47D proliferation” value (T47D (ER(+)) cells; 1 μM ICI 164,384) was “blocked”, the “blockade of tocol-induced ER-dependent transcriptional activity” value ([1]; 1 μM ICI 164,384 with 500 μM δ-TP or δ-TT) was “blocked” and the “blockade of δ-TP- and E2-induced stimulation of MCF-7 proliferation” value (MCF-7 (ER(+)) cells; 1 μM ICI 164,384) was “blocked”.

`CC(C)=CCC/C(C)=C/CC/C(C)=C/CC[C@]1(C)CCc2c(C)c(O)c(C)c(C)c2O1` [α-TT, α-tocotrienol] showed an IC50 (ERα) of 412 ± 22 µM and an IC50 (ERβ) of 388 ± 32 µM.

In the case of `CC1=CC(=O)C=C(CC[C@](C)(O)CCC[C@H](C)CCC[C@H](C)CCCC(C)C)C1=O` [δ-TPQuin, δ-tocopherylquinone], the “ERα (IC50)” value (ERα) is reported as “did not bind and N.M”, the “stimulation of luciferase expression” value [1] is reported as “did not stimulate the expression of luciferase” and the “ERβ (IC50)” value (ERβ) is reported as “did not bind and N.M”.
